Columns and labels:
HIV protease [1] = biological target: T1, HIV protease (Human immunodeficiency virus type 1 group M subtype B, UniProt P03366); test: Assay for Inhibition of Synthetic Viral Protease (HPLC of peptide substrate cleavage products); type: biochemical; conditions: synthetic protease (residues 69-167 of the pol open reading frame), substrate Val-Ser-Gln-Asn-Tyr-Pro-Ile-Val 2 mg/mL, 50 mM Na acetate, pH 5.5, 30 C, 1 hour; read-out: ICso
T1 construct: made in house; host or cells: Escherichia coli
Description: Assay for Inhibition of Synthetic Viral Protease
Inhibition studies of the reaction of the synthetic protease [amino acid residues 69-167 of the pol open reading frame in Ratner, L. et al, Nature, 313, 277 (1985) and synthesized by Merrifield solid-phase synthesis] with a peptide substrate[Val-Ser-Gln-Asn-Tyr-Pro-Ile-Val, 2 mg/mL when the reaction is initiated) were in 50 mM Na acetate, pH 5.5, at 30 C for 1 hour. Various concentrations of inhibitor in 1.0 µl DMSO were added to 36 µl of assay solution and the reaction initiated by the addition of 4 ul (1.6 µg) of synthetic protease. The reaction was quenched with 160 ul of 12% acetic acid. Products of the reaction were separated by HPLC (VYDAC wide pore 5 cm C-18 reverse phase, acetonitrile gradient, 0.1% trifluoroacetic acid). The extent of inhibition of the reaction was determined from the peak heights of the products. HPLC of the products, independently synthesized, provided quantitation standards and confirmation of the product composition.

HIV protease [2] = biological target: T1, HIV protease; test: biochemical; conditions: protease expressed in Eschericia coli, substrate Val-Ser-Gln-Asn-(betanapthyl)Ala-Pro-ile-Val 0.5 mg/mL, 50 mM Na acetate, pH 5.5, 30°, 1 hour; read-out: ICso
Description: Assay for Inhibition of Microbial Expressed Viral Protease
Inhibition studies of the reaction of the protease expressed in Eschericia coli with a peptide substrate [Val-Ser-Gln-Asn-(betanapthyl)Ala-Pro-ile-Val, 0.5 mg/mL at the time the reaction is initiated] were in 50 mM Na acetate, pH 5.5, at 30° for 1 hour. Various concentrations of inhibitor in 1.0 ul DMSO were added to 25 ui of the peptide solution in water. The reaction is initiated by the addition of 15 ul of 0.33 nM protease (0.11 ng) in a solution of 0.133 M Na acetate pH 5.5 and 0.267% bovine serum albumin. The reaction was quenched with 160 ul of 5% phosphoric acid. Products of the reaction were separated by HPLC (VYDAC wide pore 5 cm C-18 reverse phase, acetonitrile gradient, 0.1% phosphoric acid). The extent of inhibition of the reaction was determined from the peak heights of the products.
Additional compounds were tested by the assay of Example 9.

| IC50 (HIV protease [2]) [nM] | Compound | IC50 (HIV protease [1]) [nM] |
| --- | --- | --- |
| – | CC(C)C[C@H](NC(=O)[C@H](Cc1ccccc1)C[C@H](O)[C@H](CC1CCCCC1)NC(=O)OC(C)(C)C)C(=O)N[C@@H](Cc1ccccc1)C(N)=O [Compound IV, N'-(1,1-dimethylethoxycarbonyl)-5(S)-amino-4(S)-hydroxy-6-cyclohexyl-2(R)-(phenylmethyl)hexanoyl-leucyl-phenylalanylamide] | ~27 |
| ~1.4 | CC(C)C[C@H](NC(=O)[C@H](Cc1ccccc1)C[C@H](O)[C@H](Cc1ccccc1)NC(=O)OC(C)(C)C)C(=O)NCc1ccccc1 [Compound II, N-Benzyl-N'-(1,1-dimethylethexycarbonyl)-5(S)-amino-4(S)-hydroxy-6-phenyl-2(R)-(phenylmethyl)hexanoyl-leucyl-amide] | – |
| ~0.6 | CC(C)C[C@H](NC(=O)[C@H](Cc1ccccc1)C[C@H](O)[C@H](Cc1ccccc1)NC(=O)OC(C)(C)C)C(=O)N[C@@H](Cc1ccccc1)C(N)=O [Compound I, N'-(1,1-Dimethylethoxycarbonyl)-5(S)-amino-4(S)-hydroxy-6-phenyl-2(R)-(phenylmethyl)-hexanoyl-Leucyl-phenylalanyl amide] | ~2 |

| Compound | IC50 (HIV protease [2]) [nM] | IC50 (HIV protease [1]) [nM] |
| --- | --- | --- |
| CC(C)(C)OC(=O)N[C@@H](Cc1ccccc1)[C@@H](O)C[C@@H](Cc1ccccc1)C(=O)NCc1ccccc1 [Compound III] | ~120 | ~50 |
